# In patent publication US20250339531A1, “DUX4 POLYPEPTIDES AND NUCLEIC ACIDS FOR TREATING INFLAMMATORY AND AUTOIMMUNE CONDITIONS” (Fred Hutchinson Cancer Center, priority 2021, published 2025):
# Entries after “also recorded” stand apart in the source; their conditions may differ.
# Experiments:
# [1] = test system: proteins that co-immunoprecipitated with DUX4-CTD constructs expressed in MB135 myoblasts; assay: LC-MS of proteins co-immunoprecipitated with DUX4-CTD (Table 1) and western validation; type: binding, human; settings: LC-MS of co-IP; western validation with MB135-iDUXB as control; listed as DUX4-CTD
# From the text: As an unbiased method to identify proteins that interact with the C-terminal region of DUX4, liquid chromatography mass spectroscopy (LC-MS) was used to identify proteins that co-immunoprecipitated with DUX4-CTD constructs expressed in MB135 myoblasts. In the first experiment, MB135iDUX4-CTD cells were used, either untreated, treated with doxycycline alone, or with both doxycycline and IFNG. In the second experiment, MB135iDUX4-CTD and MB135iDUX4mL1dL2 cells were used, both treated with doxycycline and IFNG, compared to these two cell lines untreated and combined as a control. Proteins with a minimum of 2 peptide spectrum matches (PSMs) in at least one sample that were identified in both experiments were assigned to one of ten categories (see Methods) to separate candidate interactors from other categories that might be co-purified because of obligate interactions (e.g., proteasome or ribosome) or might be less likely to be physiologically relevant (e.g., cytoskeletal proteins). Candidate interactors were then ranked based on the total PSMs for that protein across all samples.
# Centrifugation at 2500 rcf at 4° C. for 5 min pelleted the nuclei, supernatant was discarded, and nuclei resuspended in 1 mL IP buffer pH 7.4 (25 mM Tris-HCl pH 7.5, 175 mM NaCl, 1 mM EDTA, 0.2% NP-40, 5% glycerol) and incubated for 1 hour at 4° C. with rotation then spun at 21000 rcf for 10 minutes at 4° C. to pellet insoluble debris. Protein concentration was determined using the Pierce BCA Protein Assay Kit (ThermoFisher, 23225). An equivalent amount of protein per sample was pre-cleared with Dynabeads Protein G (Invitrogen) bound to mouse IgG (Abcam #131368) for 1 hour at 4° C. with rotation. FLAG-tagged constructs were then immunoprecipitated with Dynabeads Protein G beads coupled to mouse anti-FLAG M2 mAb (Sigma F3165) for 3 hours at 4° C. with rotation. Beads were washed 3× with 1 mL IP buffer and eluted by adding 2× NuPage LDS Sample Buffer (Thermo Fisher, diluted from 4× with PBS) to the beads and heating for 10 minutes at 70° C.
# For LC-MS, anti-FLAG immunoprecipitation was performed with beads cross-linked to the anti-FLAG antibody and the proteins competitively eluted with FLAG peptide. Eluted protein samples were electrophoresed into a NuPage 4-12% Bis-Tris gel, excised, and processed by the Fred Hutchinson Cancer Research Center Proteomics Core. Samples were reduced, alkylated, digested with trypsin, desalted, and run on the Orbitrap Eclipse Tribid Mass Spectrometer (Thermo Fisher). Proteomics data were analyzed using Proteome Discoverer 2.4 against a Uniprot human database that included common contaminants using Sequest HT and Percolator for scoring. […] Proteins that were identified in at least one sample from both independent experiments with at least 2 PSMs in one sample were assigned to one of ten categories: 1, candidates; 2, cytoskeletal associated; 3, cytoskeletal; 4, ribosome/translation associated; 5, proteasome associated; 6, membrane or extracellular; ER, golgi, or vesicle associated; 8, lipid metabolism; 9, chaperones; 10, nuclear import or nuclear membrane associated. The proteins in category 1 were further investigated for interactions with DUX4.
# [2] = test system: immunoproteasome subunits PSMB8, PSMB9, and PSMB10; assay: Immunoblot of IFNG-induced immunoproteasome subunits; type: cell-based, human; settings: for suppression of IFNG-induced immunoproteasome subunit protein, pulsed protocol / suppression of IFNG-induced immunoproteasome subunit protein, continuous protocol: MB135 cells; for suppression of IFNG-induced immunoproteasome subunit protein, pulsed protocol: 4 h doxycycline pulse, later IFNG 16 h; for suppression of IFNG-induced immunoproteasome subunit protein, continuous protocol: doxycycline 20 h, IFNG last 16 h
# Method: In the “continuous” protocol (similar to the experiments shown in the prior FIGS. 1, 2, 4, 5, and 6), doxycycline is added to induce DUX4 expression at time 0 and four hours later IFNG is added for an additional 16 hours, resulting in 20 hours of continuous DUX4 induction with the last 16 hrs exposed to IFNG.
# In the “pulsed” protocol, doxycycline is added at time 0 to induce DUX4 expression, but after four hours the media is changed to remove the doxycycline, resulting in a pulse of DUX4 mRNA and protein sufficient to induce DUX4 target gene expression (see Resnick et al., Cell Rep. 2019 Nov. 12; 29(7):1812-1820.e5). IFNG is added at 28 hours for a period of 16 hours prior to harvesting the cells. […] This difference is not likely to be due to different amounts of the DUX4 and mutant DUX4 proteins because at the time of harvest both DUX4 and the F67A mutant DUX4 protein levels have declined to similarly low amounts relative to the continuous protocol, but could be due to the activation of DUX4 target genes by the full-length DUX4 since the H3.X/Y proteins show persistent expression in the pulsed protocol.
# (§1) Protein samples were harvested in RIPA buffer [150 mM NaCl, 1% NP-40, 0.5% Na-deocycholate, 1% SDS, 25 mM Tris-HCl pH7.4] supplemented with protease and phosphatase inhibitor tablets (Pierce), followed by sonication in Diagenode Bioruptor. Lysate was cleared by centrifugation at 16000×g and quantified using a Pierce BCA assay (Thermo Fisher Scientific). Samples were run on NuPAGE precast polyacrylamide gels (Invitrogen) and transferred to PVDF membrane. Membranes were blocked in PBS containing 0.1% Tween-20 and 5% non-fat dry milk before overnight incubation at 4° C. with primary antibodies (see resource table for a list of antibodies used in this study). Membranes were incubated with horseradish peroxidase-conjugated secondary antibodies for 1 hour at room temperature and SuperSignal chemiluminescent substrate (Thermo Scientific) was used for detection on film with a Mini-medical 90 processor. Membranes were stripped with Restore Western Blot Stripping Buffer (Pierce).
# [3] = test system: de novo protein synthesis; assay: [35S]-methionine/cysteine metabolic labeling of nascent protein synthesis; type: cell-based; settings: human myoblasts, 20-92 h after 4 h doxycycline pulse
# Method: Cells were treated with and without a 4-hour pulse of doxycycline. Eight hours prior to harvest, cells were incubated in DMEM depleted for methionine and cysteine (Gibco) supplemented with 90 microcurie 35S-methionine/cysteine (Perkin Elmer) and 50 ng/ml […] (R&D Systems). Protein samples were harvested in RIPA buffer [150 mM NaCl, 1% NP-40, 0.5% Na-deocycholate, 1% SDS, 25 mM Tris-HCl pH7.4] supplemented with protease and phosphatase inhibitor tablets (Pierce), followed by sonication in Diagenode Bioruptor. Lysate was cleared by centrifugation at 16000×g and quantified using a Pierce BCA assay (Thermo Scientific). Samples were run on NuPAGE precast polyacrylamide gels (Invitrogen). Gels were stained with InstantBlue Coomassie (Abcam) following manufacturer protocol, placed on whatman paper, wrapped in plastic wrap, and dried. Gels were exposed to phosphor screen, imaged on Typhoon Trio imager, and analyzed with ImageQuant.
# [4] = test system: eIF2-alpha, RPS6, 4EBP1, eIF4E, eEF2; assay: Immunoblot of translational regulators; type: cell-based, human; settings: MB135 myoblasts, 4-hour pulse of doxycycline
# Method: as §1
Substance,candidate interacting proteins [1],"suppression of IFNG-induced immunoproteasome subunit protein, pulsed protocol [2]","suppression of IFNG-induced immunoproteasome subunit protein, pulsed protocol ([2]; listed as wildtype DUX4)","suppression of IFNG-induced immunoproteasome subunit protein, continuous protocol [2]","suppression of IFNG-induced immunoproteasome subunit protein, continuous protocol ([2]; listed as wildtype DUX4)","suppression of PSMB9 in PKR knockout background ([2]; MB135iDUX4 WT and PKR-KO cells, continuous or pulsed)",nascent protein synthesis by 35S labeling [3],nascent protein synthesis by 35S labeling ([3]; listed as wildtype DUX4),status of translational regulators after a pulse of transgene [4]
"longCTD: 3×FLAG tag and nls in frame with carboxyterminal 271 amino acids of DUX4 (aa154-424), SEQ ID NOS: 8-9","STAT1 and DDX3X, two key regulators of innate immune signaling, ranked at the top of the list; also recorded: validated the DUX4-CTD interactions with DDX3X, STAT1, PRKDC, YBX1, HNRNPM, PABPC1, NCL, CDK4, and HNRPU",–,–,–,–,–,–,–,–
DUX4: human DUX4 protein SEQ ID NO:3 expressed from doxycycline inducible codon altered transgene SEQ ID NO:2,–,completely blocked; also recorded: elicited the same degree of suppression when assayed forty-four hours later; also recorded: completely block protein accumulation of PSMB9 and PSMB10,suppressed MHC-I and immunoproteasome subunits,completely blocked; also recorded: IFNG-induction of MHC-I and the immunoproteasome was suppressed; also recorded: completely block protein accumulation of PSMB9 and PSMB10,suppressed IFNG-induced MHC-I and the immunoproteasome expression,evident in both wild-type (WT) and PKR-KO cells,global de novo protein synthesis was transiently reduced,a reduction in labeled nascent proteins several days following a pulse,sufficient to induce phosphorylation of eIF2-alpha; also recorded: brief reduction in phosphorylation of ribosomal protein S6 (RPS6); also recorded: prolonged dephosphorylation of 4EBP1 and a correlated loss of phosphorylated eukaryotic initiation factor 4E (eIF4E); also recorded: increased phosphorylation of eukaryotic elongation factor 2 (eEF2) on threonine 56; also recorded: enhanced phosphorylation of eEF2 at Thr56 and reduced phosphorylation of eIF4E at Ser209
